In PubChem BioAssay (NCI):
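Grown in 96-well plates, cells were treated for 48 hours with each compound at five concentrations. Insufficient inhibition: endpoint recorded as highest concentration tested. Here, GI50 denotes the concentration required for 50% inhibition of growth. TGI: concentration producing complete growth inhibition.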

Columns and labels:
Experiment in all cases: inhibition of tumour cell growth, NCI panel, 48 h
UO-31 renal = system: UO-31 renal
MDA-MB-435 = system: MDA-MB-435
IGROV1 ovarian = system: IGROV1 ovarian
RXF 393 renal = system: RXF 393 renal
MDA-MB-231 breast = system: MDA-MB-231 breast
OVCAR-8 ovarian = system: OVCAR-8 ovarian
SK-MEL-28 melanoma = system: SK-MEL-28 melanoma
T-47D breast = system: T-47D breast
HOP-62 NSCLC = system: HOP-62 NSCLC
786-0 renal = system: 786-0 renal
UACC-62 melanoma = system: UACC-62 melanoma
A498 renal = system: A498 renal
HCC-2998 colon = system: HCC-2998 colon
SR leukemia = system: SR leukemia
SNB-75 CNS = system: SNB-75 CNS
HCT-116 colon = system: HCT-116 colon
KM12 colon = system: KM12 colon
NCI-H23 lung = system: NCI-H23 lung
HCT-15 colon = system: HCT-15 colon
TK-10 renal = system: TK-10 renal
SF-295 CNS = system: SF-295 CNS
OVCAR-4 ovarian = system: OVCAR-4 ovarian
NCI-H460 lung = system: NCI-H460 lung
SK-MEL-5 melanoma = system: SK-MEL-5 melanoma
HS 578T breast = system: HS 578T breast
UACC-257 melanoma = system: UACC-257 melanoma
COLO 205 colon = system: COLO 205 colon
SNB-19 CNS = system: SNB-19 CNS
CAKI-1 renal = system: CAKI-1 renal
U251 CNS = system: U251 CNS
SF-539 CNS = system: SF-539 CNS
RPMI-8226 leukemia = system: RPMI-8226 leukemia
SK-MEL-2 melanoma = system: SK-MEL-2 melanoma
NCI-H226 lung = system: NCI-H226 lung
DU-145 prostate = system: DU-145 prostate
PC-3 prostate = system: PC-3 prostate
A549 NSCLC = system: A549 NSCLC
M14 melanoma = system: M14 melanoma
SN12C renal = system: SN12C renal
HOP-92 NSCLC = system: HOP-92 NSCLC
LOX IMVI melanoma = system: LOX IMVI melanoma
MCF7 breast = system: MCF7 breast
MALME-3M melanoma = system: MALME-3M melanoma
EKVX NSCLC = system: EKVX NSCLC
CCRF-CEM leukemia = system: CCRF-CEM leukemia
SW-620 colon = system: SW-620 colon
BT-549 breast = system: BT-549 breast
ACHN renal = system: ACHN renal
HL-60(TB) leukemia = system: HL-60(TB) leukemia
SK-OV-3 ovarian = system: SK-OV-3 ovarian
NCI/ADR-RES ovarian = system: NCI/ADR-RES ovarian
OVCAR-5 ovarian = system: OVCAR-5 ovarian
SF-268 CNS = system: SF-268 CNS
K-562 leukemia = system: K-562 leukemia
HT29 colon = system: HT29 colon
MOLT-4 leukemia = system: MOLT-4 leukemia

SMILES: Oc1ccccc1-c1nnc(SCc2ccc(O)c3ncccc23)n1-c1ccccc1
- GI50 (UO-31 renal): 291 nM
- TGI (UO-31 renal): 2480 nM
- GI50 (MDA-MB-435): 402 nM
- TGI (MDA-MB-435): > 100000 nM
- GI50 (IGROV1 ovarian): 406 nM
- TGI (IGROV1 ovarian): > 100000 nM
- GI50 (RXF 393 renal): 666 nM
- TGI (RXF 393 renal): 80200 nM
- GI50 (MDA-MB-231 breast): 432 nM
- TGI (MDA-MB-231 breast): 24200 nM
- GI50 (OVCAR-8 ovarian): 375 nM
- TGI (OVCAR-8 ovarian): > 41500 nM
- GI50 (SK-MEL-28 melanoma): 543 nM
- TGI (SK-MEL-28 melanoma): > 100000 nM
- GI50 (T-47D breast): 344 nM
- TGI (T-47D breast): > 100000 nM
- GI50 (HOP-62 NSCLC): 377 nM
- TGI (HOP-62 NSCLC): > 21000 nM
- GI50 (786-0 renal): 513 nM
- TGI (786-0 renal): 12000 nM
- GI50 (UACC-62 melanoma): 426 nM
- TGI (UACC-62 melanoma): 2540 nM
- GI50 (A498 renal): 1850 nM
- TGI (A498 renal): 7440 nM
- GI50 (HCC-2998 colon): 552 nM
- TGI (HCC-2998 colon): > 95200 nM
- GI50 (SR leukemia): 345 nM
- TGI (SR leukemia): > 100000 nM
- GI50 (SNB-75 CNS): 416 nM
- TGI (SNB-75 CNS): > 58800 nM
- GI50 (HCT-116 colon): 325 nM
- TGI (HCT-116 colon): > 100000 nM
- GI50 (KM12 colon): 485 nM
- TGI (KM12 colon): > 75300 nM
- GI50 (NCI-H23 lung): 412 nM
- TGI (NCI-H23 lung): > 100000 nM
- GI50 (HCT-15 colon): 323 nM
- TGI (HCT-15 colon): > 100000 nM
- GI50 (TK-10 renal): 417 nM
- TGI (TK-10 renal): > 100000 nM
- GI50 (SF-295 CNS): 347 nM
- TGI (SF-295 CNS): > 53800 nM
- GI50 (OVCAR-4 ovarian): 641 nM
- TGI (OVCAR-4 ovarian): > 100000 nM
- GI50 (NCI-H460 lung): 372 nM
- TGI (NCI-H460 lung): > 100000 nM
- GI50 (SK-MEL-5 melanoma): 349 nM
- TGI (SK-MEL-5 melanoma): 1530 nM
- GI50 (HS 578T breast): 357 nM
- TGI (HS 578T breast): > 100000 nM
- GI50 (UACC-257 melanoma): 514 nM
- TGI (UACC-257 melanoma): > 26800 nM
- GI50 (COLO 205 colon): 4010 nM
- TGI (COLO 205 colon): 32000 nM
- GI50 (SNB-19 CNS): 378 nM
- TGI (SNB-19 CNS): > 100000 nM
- GI50 (CAKI-1 renal): 382 nM
- TGI (CAKI-1 renal): 24600 nM
- GI50 (U251 CNS): 363 nM
- TGI (U251 CNS): > 100000 nM
- GI50 (SF-539 CNS): 438 nM
- TGI (SF-539 CNS): 13700 nM
- GI50 (RPMI-8226 leukemia): 399 nM
- TGI (RPMI-8226 leukemia): > 100000 nM
- GI50 (SK-MEL-2 melanoma): 361 nM
- GI50 (NCI-H226 lung): 1770 nM
- TGI (NCI-H226 lung): > 100000 nM
- GI50 (DU-145 prostate): 498 nM
- TGI (DU-145 prostate): > 90800 nM
- GI50 (PC-3 prostate): 488 nM
- TGI (PC-3 prostate): > 100000 nM
- GI50 (A549 NSCLC): 441 nM
- TGI (A549 NSCLC): > 100000 nM
- GI50 (M14 melanoma): 418 nM
- GI50 (SN12C renal): 347 nM
- TGI (SN12C renal): 52700 nM
- GI50 (HOP-92 NSCLC): 106 nM
- TGI (HOP-92 NSCLC): 654 nM
- GI50 (LOX IMVI melanoma): 350 nM
- TGI (LOX IMVI melanoma): > 35300 nM
- GI50 (MCF7 breast): 310 nM
- TGI (MCF7 breast): > 100000 nM
- GI50 (MALME-3M melanoma): 806 nM
- TGI (MALME-3M melanoma): 7890 nM
- GI50 (EKVX NSCLC): 437 nM
- TGI (EKVX NSCLC): 9810 nM
- GI50 (CCRF-CEM leukemia): 379 nM
- TGI (CCRF-CEM leukemia): > 100000 nM
- GI50 (SW-620 colon): 429 nM
- TGI (SW-620 colon): > 100000 nM
- GI50 (BT-549 breast): 494 nM
- TGI (BT-549 breast): > 100000 nM
- GI50 (ACHN renal): 331 nM
- TGI (ACHN renal): 26300 nM
- GI50 (HL-60(TB) leukemia): 326 nM
- TGI (HL-60(TB) leukemia): 2380 nM
- GI50 (SK-OV-3 ovarian): 376 nM
- TGI (SK-OV-3 ovarian): > 19700 nM
- GI50 (NCI/ADR-RES ovarian): 279 nM
- TGI (NCI/ADR-RES ovarian): > 100000 nM
- GI50 (OVCAR-5 ovarian): 2110 nM
- TGI (OVCAR-5 ovarian): > 100000 nM
- GI50 (SF-268 CNS): 475 nM
- TGI (SF-268 CNS): > 100000 nM
- GI50 (K-562 leukemia): 270 nM
- TGI (K-562 leukemia): > 100000 nM
- GI50 (HT29 colon): 3620 nM
- TGI (HT29 colon): > 51400 nM
- GI50 (MOLT-4 leukemia): 434 nM
- TGI (MOLT-4 leukemia): > 100000 nM
